Assay results taken from patent US20250206718A1, “NITROGEN-CONTAINING HETEROCYCLIC DERIVATIVE INHIBITOR, PREPARATION METHOD THEREFOR AND USE THEREOF” (SHANGHAI HANSOH BIOMEDICAL CO., LTD., priority 2022, published 2025).

Each compound was assayed against Ba/F3 EGFR Del19/C797S cells (Homo sapiens, UniProt P00533, C797S, cells depend on it, form not given) (assay: Cell proliferation inhibition (Cell Titer-Glo), Ba/F3 EGFR Del19/C797S). Conditions: 72 hours, CellTiter-Glo, read-out: Ba/F3 EGFR Del19/C797S IC50.
Type: cell-based, mouse
Excerpt: Experimental objective: The objective of this test example is to test the inhibitory activity of compounds on the proliferation of different EGFR C797S drug-resistant mutant cell lines Ba/F3 EGFR Del19/T790M/C797S, Ba/F3 EGFR L858R/T790M/C797S, and Ba/F3 EGFR Del19/C797S.
• Ba/F3 EGFR Del19/T790M/C797S cells were purchased from KYinno Biotechnology Co., Ltd.; • Ba/F3 EGFR Del19/C797S cells were purchased from CoBioer Biosciences Co., Ltd.; • Ba/F3 EGFR L858R/T790M/C797S cells were purchased from CoBioer Biosciences Co., Ltd.; • Cell Titer-Glo was purchased from Promega, with a catalog number of G7573; • RPMI 1640 was purchased from Gibco, with a catalog number of 22400089; • FBS was purchased from Gibco, with a catalog number of 10091148; • cell culture plates were purchased from Corning, with a catalog number of 3610.
The inhibitory activity of the compound on the proliferation of different EGFR C797S drug-resistant mutant cell lines was detected using the Cell Titer-Glo method. The different cell lines were cultured in RPMI 1640 complete culture medium containing 10% FBS under conditions of 37° C. and 5% CO2, the cells were collected by centrifugation when growing to a certain density, and adjusted to appropriate cell density after counting, the cells were spread on a white 96-well plate at 90 μL/well, and cultured in a 37° C., 5% CO2 incubator overnight, prepared compound solutions of different concentrations were added at 10 μL/well, corresponding solvent controls were set, and all wells were cultured in a 37° C., 5% CO2 incubator for 72 hours, 50 μL of CellTiter-Glo solution was added to each well, shook and mixed evenly, and incubated in the dark for 10 minutes, and a BioTek Synergy H1 microplate reader was used for reading.
The luminescence signal value was used to calculate the inhibition rate. Graphpad Prism software was used to fit the concentration and inhibition rate to a nonlinear regression curve, so as to obtain the IC50 value, as shown in the Table below for details.

Ba/F3 EGFR Del19/C797S cells, sequence (P00533 with tags, fused parts or gaps DEL746-750/C797S, form open): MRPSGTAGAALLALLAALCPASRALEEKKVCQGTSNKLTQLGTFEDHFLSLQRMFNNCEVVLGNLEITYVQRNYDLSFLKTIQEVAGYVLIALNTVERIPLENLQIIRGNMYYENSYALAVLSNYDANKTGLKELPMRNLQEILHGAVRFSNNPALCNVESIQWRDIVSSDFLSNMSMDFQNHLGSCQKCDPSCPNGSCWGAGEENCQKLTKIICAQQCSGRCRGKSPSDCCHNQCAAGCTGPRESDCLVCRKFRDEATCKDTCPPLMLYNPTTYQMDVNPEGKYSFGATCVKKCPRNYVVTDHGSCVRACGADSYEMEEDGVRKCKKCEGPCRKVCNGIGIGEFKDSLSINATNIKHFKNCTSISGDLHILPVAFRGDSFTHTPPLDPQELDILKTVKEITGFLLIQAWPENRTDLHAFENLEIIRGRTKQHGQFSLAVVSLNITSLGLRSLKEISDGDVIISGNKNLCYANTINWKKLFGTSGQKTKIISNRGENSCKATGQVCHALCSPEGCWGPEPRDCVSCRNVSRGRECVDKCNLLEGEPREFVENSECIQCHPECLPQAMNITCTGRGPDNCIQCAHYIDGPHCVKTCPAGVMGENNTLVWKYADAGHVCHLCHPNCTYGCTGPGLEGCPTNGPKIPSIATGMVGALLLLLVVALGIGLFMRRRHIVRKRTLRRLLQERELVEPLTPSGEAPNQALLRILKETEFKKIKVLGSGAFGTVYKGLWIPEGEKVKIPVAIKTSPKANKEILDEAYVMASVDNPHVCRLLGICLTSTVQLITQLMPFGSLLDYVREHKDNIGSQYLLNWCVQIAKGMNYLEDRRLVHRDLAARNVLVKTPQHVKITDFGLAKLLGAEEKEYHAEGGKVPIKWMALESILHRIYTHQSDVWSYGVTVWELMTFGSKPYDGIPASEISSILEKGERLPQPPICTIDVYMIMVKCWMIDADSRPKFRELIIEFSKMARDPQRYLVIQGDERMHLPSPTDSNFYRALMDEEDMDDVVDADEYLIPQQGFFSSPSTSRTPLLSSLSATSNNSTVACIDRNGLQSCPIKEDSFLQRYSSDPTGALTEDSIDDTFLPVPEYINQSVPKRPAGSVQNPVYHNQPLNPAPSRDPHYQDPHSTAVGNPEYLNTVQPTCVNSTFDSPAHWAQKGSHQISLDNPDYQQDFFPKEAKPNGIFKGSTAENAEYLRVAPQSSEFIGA

`CC(C)c1ccc(N2C[C@H](CS(C)(=O)=O)[C@H]2C)c2cnc(Nc3ccnc(-c4cn(C[C@H]5CCCO5)nc4Cl)n3)cc12` [Example 144, N-(2-(3-chloro-1-(((R)-tetrahydrofuran-2-yl)methyl)-1H-pyrazol-4-yl)pyrimidin-4-yl)-5-isopropyl-8-((2R,3S)-2-methyl-3-((methanesulfonyl)methyl)azetidin-1-yl)isoquinolin-3-amine] and `CC(C)c1ccc(N2C[C@H](CS(C)(=O)=O)[C@H]2C)c2cnc(Nc3ccnc(-c4cn(CC5CCO5)nc4Cl)n3)cc12` (stereo partly drawn) [Example 165, N-(2-(3-chloro-1-(oxetan-2-ylmethyl)-1H-pyrazol-4-yl)pyrimidin-4-yl)-5-isopropyl-8-((2R,3S)-2-methyl-3-((methanesulfonyl)methyl)azetidin-1-yl)isoquinolin-3-amine] are within 1.5-fold of each other in GI50: 0.026 µM for the first, 0.022 µM for the second.

Going from `CC(C)c1ccc(N2C[C@H](CS(C)(=O)=O)[C@H]2C)c2cnc(Nc3ccnc(-c4cn(C5CC6(COC6)C5)nc4Cl)n3)cc12` [Example 141, N-(2-(3-chloro-1-(2-oxaspiro[3.3]heptan-6-yl)-1H-pyrazol-4-yl)pyrimidin-4-yl)-5-isopropyl-8-((2R,3S)-2-methyl-3-((methanesulfonyl)methyl)azetidin-1-yl)isoquinolin-3-amine] to `CC(C)c1ccc(N2C[C@H](CS(C)(=O)=O)[C@H]2C)c2cnc(Nc3ccnc(-c4cn([C@H]5CCOC5)nc4Cl)n3)cc12` [Example 142, N-(2-(3-chloro-1-((S)-tetrahydrofuran-3-yl)-1H-pyrazol-4-yl)pyrimidin-4-yl)-5-isopropyl-8-((2R,3S)-2-methyl-3-((methanesulfonyl)methyl)azetidin-1-yl)isoquinolin-3-amine], the GI50 falls from 0.064 µM to 0.041 µM (1.6-fold).

Compared with `CC(C)c1c(F)cc(N2CC(N(C)S(C)(=O)=O)C2)c2cnc(Nc3ccnc(-c4cn(C)nc4Cl)n3)cc12` [Example 124, N-(1-(3-((2-(3-chloro-1-methyl-1H-pyrazol-4-yl)pyrimidin-4-yl)amino)-6-fluoro-5-isopropylisoquinolin-8-yl)azetidin-3-yl)-N-methyl methanesulfonamide], `Cc1nn(C)cc1-c1nccc(Nc2cc3c(C(C)C)c(F)cc(N4CC(N(C)S(C)(=O)=O)C4)c3cn2)n1` [Example 129, N-(1-(3-((2-(1,3-dimethyl-1H-pyrazol-4-yl)pyrimidin-4-yl)amino)-6-fluoro-5-isopropylisoquinolin-8-yl)azetidin-3-yl)-N-methyl methanesulfonamide] is 1.6-fold higher in GI50: 0.014 µM for the first, 0.022 µM for the second.

Going from `CC(C)c1ccc(N2C[C@H](CS(C)(=O)=O)[C@H]2C)c2cnc(Nc3ccnc(-c4cn(C5CC(=O)C5)nc4Cl)n3)cc12` [Example 156, 3-(3-chloro-4-(4-((5-isopropyl-8-((2R,3S)-2-methyl-3-((methanesulfonyl)methyl)azetidin-1-yl)isoquinolin-3-yl)amino)pyrimidin-2-yl)-1H-pyrazol-1-yl)cyclobutan-1-one] to `CC(C)c1ccc(N2C[C@H](CS(C)(=O)=O)[C@H]2C)c2cnc(Nc3ccnc(-c4cn(C5CC(O)C5)nc4Cl)n3)cc12` (stereo partly drawn) [Example 154A, 3-(3-chloro-4-(4-((5-isopropyl-8-((2R,3S)-2-methyl-3-((methanesulfonyl)methyl)azetidin-1-yl)isoquinolin-3-yl)amino)pyrimidin-2-yl)-1H-pyrazol-1-yl)cyclobutan-1-ol], the GI50 falls from 0.042 µM to 0.022 µM (1.9-fold).

`Cc1nn(C)cc1-c1nccc(Nc2cc3c(C(C)C)ncc(N4CC(N(C)S(C)(=O)=O)C4)c3cn2)n1` [Example 60, N-(1-(7-((2-(1,3-dimethyl-1H-pyrazol-4-yl)pyrimidin-4-yl)amino)-1-isopropyl-2,6-diazanaphthalen-4-yl)azetidin-3-yl)-N-methyl methanesulfonamide] and `Cc1nn(C)cc1-c1nccc(Nc2cc3c(C(C)C)ncc(N4C[C@H](N(C)S(C)(=O)=O)[C@H]4C)c3cn2)n1` [Example 61, N-((2R,3S)-1-(7-((2-(1,3-dimethyl-1H-pyrazol-4-yl)pyrimidin-4-yl)amino)-1-isopropyl-2,6-diazanaphthalen-4-yl)-2-methylazetidin-3-yl)-N-methyl methanesulfonamide] are within 1.5-fold of each other in GI50: 0.0056 µM for the first, 0.006 µM for the second.

Going from `CC(C)c1ccc(N2CC(N=S(C)(C)=O)C2)c2cnc(Nc3ccnc(-c4cn(C)nc4Cl)n3)cc12` [Example 102, ((1-(3-((2-(3-chloro-1-methyl-1H-pyrazol-4-yl)pyrimidin-4-yl)amino)-5-isopropylisoquinolin-8-yl)azetidin-3-yl)imino)dimethyl-16-sulfanone] to `CC(C)c1ccc(N2C[C@H](N3CCOC3=O)[C@H]2C)c2cnc(Nc3ccnc(-c4cn(C)nc4Cl)n3)cc12` [Example 109, 3-((2R,3S)-1-(3-((2-(3-chloro-1-methyl-1H-pyrazol-4-yl)pyrimidin-4-yl)amino)-5-isopropylisoquinolin-8-yl)-2-methylazetidin-3-yl)oxazolidin-2-one], the GI50 falls from 0.073 µM to 0.014 µM (5.2-fold).

`CC(C)c1ccc(N2C[C@H](CS(C)(=O)=O)[C@H]2C)c2cnc(Nc3ccnc(-c4c[nH]nc4Cl)n3)cc12` [Example 170, N-(2-(3-chloro-1H-pyrazol-4-yl)pyrimidin-4-yl)-5-isopropyl-8-((2R,3S)-2-methyl-3-((methanesulfonyl)methyl)azetidin-1-yl)isoquinolin-3-amine] and `CC(C)c1ccc(N2C[C@H](CS(C)(=O)=O)[C@H]2C)c2cnc(Nc3ccnc(-c4cn(C(F)F)nc4Cl)n3)cc12` [Example 177, N-(2-(3-chloro-1-(difluoromethyl)-1H-pyrazol-4-yl)pyrimidin-4-yl)-5-isopropyl-8-((2R,3S)-2-methyl-3-((methanesulfonyl)methyl)azetidin-1-yl)isoquinolin-3-amine] are within 1.5-fold of each other in GI50: 0.06 µM for the first, 0.043 µM for the second.

`CC(C)c1ccc(N2C[C@H](CS(C)(=O)=O)[C@H]2C)c2cnc(Nc3ccnc(-c4cn(C5CC5)nc4F)n3)cc12` [Example 9, N-(2-(1-cyclopropyl-3-fluoro-1H-pyrazol-4-yl)pyrimidin-4-yl)-5-isopropyl-8-((2R,3S)-2-methyl-3-((methylsulfonyl)methyl)azetidin-1-yl)isoquinolin-3-amine] and `CC(C)c1ccc(N2C[C@H](CS(C)(=O)=O)[C@H]2C)c2cnc(Nc3ccnc(-c4cn(C5CCN(C)CC5)nc4Cl)n3)cc12` [Example 158, N-(2-(3-chloro-1-(1-methylpiperidin-4-yl)-1H-pyrazol-4-yl)pyrimidin-4-yl)-5-isopropyl-8-((2R,3S)-2-methyl-3-((methanesulfonyl)methyl)azetidin-1-yl)isoquinolin-3-amine] are within 1.5-fold of each other in GI50: 0.057 µM for the first, 0.05 µM for the second.

`CC(C)c1c(N)cc(N2C[C@H](CS(C)(=O)=O)[C@H]2C)c2cnc(Nc3ccnc(-c4cn(C)nc4Cl)n3)cc12` [Example 169, N3-(2-(3-chloro-1-methyl-1H-pyrazol-4-yl)pyrimidin-4-yl)-5-isopropyl-8-((2R,3S)-2-methyl-3-((methanesulfonyl)methyl)azetidin-1-yl)isoquinoline-3,6-diamine] and `CC(C)c1ccc(N2C[C@H](CS(C)(=O)=O)[C@H]2C)c2cnc(Nc3ccnc(-c4cn(C(C)C#N)nc4Cl)n3)cc12` (stereo partly drawn) [Example 115, 2-(3-chloro-4-(4-((5-isopropyl-8-((2R,3S)-2-methyl-3-((methanesulfonyl)methyl)azetidin-1-yl)isoquinolin-3-yl)amino)pyrimidin-2-yl)-1H-pyrazol-1-yl)propanenitrile] are within 1.5-fold of each other in GI50: 0.052 µM for the first, 0.073 µM for the second.

Going from `CC(C)c1c(F)cc(N2CC(NS(C)(=O)=O)C2)c2cnc(Nc3ccnc(-c4cn(C)nc4Cl)n3)cc12` [Example 178, N-(1-(3-((2-(3-chloro-1-methyl-1H-pyrazol-4-yl)pyrimidin-4-yl)amino)-6-fluoro-5-isopropylisoquinolin-8-yl)azetidin-3-yl)methanesulfonamide] to `CC(=O)Cn1cc(-c2nccc(Nc3cc4c(C(C)C)ccc(N5C[C@H](CS(C)(=O)=O)[C@H]5C)c4cn3)n2)c(Cl)n1` [Example 114, 1-(3-chloro-4-(4-((5-isopropyl-8-((2R,3S)-2-methyl-3-((methanesulfonyl)methyl)azetidin-1-yl)isoquinolin-3-yl)amino)pyrimidin-2-yl)-1H-pyrazol-1-yl)propan-2-one], the GI50 rises from 0.019 µM to 0.039 µM (2.1-fold).

`CC(C)c1ccc(N2C[C@H](CS(C)(=O)=O)[C@H]2C)c2cnc(Nc3ccnc(-c4cn(C5CC(C#N)C5)nc4Cl)n3)cc12` (stereo partly drawn) [Example 151A, 3-(3-chloro-4-(4-((5-isopropyl-8-((2R,3S)-2-methyl-3-((methanesulfonyl)methyl)azetidin-1-yl)isoquinolin-3-yl)amino)pyrimidin-2-yl)-1H-pyrazol-1-yl)cyclobutane-1-carbonitrile] gave a GI50 of 0.041 µM.
